From patent US8124629B2, “Naphthylacetic acids” (Hoffmann-La Roche Inc., priority 2008, dated 2012) come the findings set out here.

For orientation: IC50 means the concentration needed to halve the response being measured.

In the experiment the target is T1, human CRTH2 (Homo sapiens, UniProt Q9Y5Y4).
T1 sequence (Q9Y5Y4 1-395): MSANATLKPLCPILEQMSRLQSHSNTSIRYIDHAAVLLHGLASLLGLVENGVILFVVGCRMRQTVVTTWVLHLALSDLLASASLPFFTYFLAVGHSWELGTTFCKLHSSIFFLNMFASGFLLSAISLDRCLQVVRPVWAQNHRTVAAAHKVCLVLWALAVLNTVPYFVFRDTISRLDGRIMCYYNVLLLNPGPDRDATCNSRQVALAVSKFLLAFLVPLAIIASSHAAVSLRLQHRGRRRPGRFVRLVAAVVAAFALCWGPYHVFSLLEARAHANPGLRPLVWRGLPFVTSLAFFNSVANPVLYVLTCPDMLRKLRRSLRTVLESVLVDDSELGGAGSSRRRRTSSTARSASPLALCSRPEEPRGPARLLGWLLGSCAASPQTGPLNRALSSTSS
Briefly: Human CRTH2 Receptor Binding Assay (whole cell, [3H]ramatroban). On the set-up: expressed in transfected cells; host or cells: CHO-K1. The following applies: CHO-K1 cells expressing human CRTH2 and G-alpha16; 20 nM [3H]ramatroban; 1 hour, room temperature. An excerpt: A whole cell receptor binding assay using [^3H]ramatroban as the competing radioactive ligand was employed to evaluate the compound binding activity to human CRTH2. The radioactive ligand [^3H]ramatroban was synthesized according to Sugimoto et. al. (Eur. J. Pharmacol. 524, 30-37, 2005) to a specific activity of 42 Ci/mmol.
A cell line stably expressing human CRTH2 was established by transfecting CHO-K1 cells with two mammalian expression vectors that harbored human CRTH2 and G-alpha16 cDNAs, respectively, using FuGene® 6 transfection reagent (from Roche). Stable clones expressing CRTH2 were selected by staining each clone with BM16 (BD Pharmingen™ from BD Biosciences, a division of Becton, Dickinson and Company), which is a rat monoclonal antibody to human CRTH2. The cells were maintained as monolayer cultures in Ham's F-12 medium containing 10% fetal bovine serum, 100 units/mL penicillin, 100 μg/mL streptomycin, 2 mM glutamine, 0.5 mg/mL G418 (geneticin) for CRTH2, and 0.2 mg/mL hygromycin-B (for G-alpha 16). For whole cell receptor binding assay, the monolayer cells were rinsed once with PBS (phosphate buffered saline), dissociated using ethylenediaminetetraacetate (Versene™ EDTA from Lonza Inc.), and suspended in PBS containing 10 mM MgCl2 and 0.06% BSA (bovine serum albumin) at 1.5×10^6 cells/mL.
The binding reactions (0.2 mL) were performed in 96-well plates at room temperature in PBS containing 1.5×10^5 cells, 10 mM MgCl2, 0.06% BSA, 20 nM [^3H]ramatroban, and test compound at various concentrations. After 1 hour of binding reactions, the cells were harvested on GF™/B filter microplates (microtiter plates with embedded glass fiber from Perkin Elmer, Inc.) and washed 5 times with PBS using a Filtermate™ Harvester (a cell harvester that harvests and washes cells from microplates from PerkinElmer, Inc.). The radioactivities bound to the cells were determined using a microplate scintillation counter (TopCount® NXT, from PerkinElmer, Inc.) after adding 50 μL of Microscint™ 20 scintillation fluid (from PerkinElmer, Inc.) to each well of the filter plates. The radioactivity from non-specific binding was determined by replacing compound with 10 μM of 15(R)-15-methyl PGD2 (from Cayman Chemical Company) in the reaction mixtures. The radioactivity bound to the cells in the absence of compound (total binding) was determined by replacing compound with 0.25% of DMSO (dimethyl sulfoxide) in the reaction mixture. Specific binding data were obtained by subtracting the radioactivity of non-specific binding from each binding data.
The IC50 value is defined as the concentration of the tested compound that is required for 50% inhibition of total specific binding. In order to calculate the IC50 value, the percent inhibition data were determined for 7 concentrations for each compound. The percent inhibition for a compound at each concentration was calculated according to the following formula, [1-(specific binding in the presence of compound)/(total specific binding)]×100. The IC50 value was then obtained by fitting the percent inhibition data to a sigmoidal dose-response (4 parameter logistic) model in the XLfit® software Excel add-in program [from ID Business Solutions Ltd., model 205, where F(x)=(A+(B−A)/(1+((C/×)^D)))].
Compound `CCOC(=O)N1CCN(S(=O)(=O)c2ccc(C(=O)c3cc(CC(=O)O)cc4ccc(F)cc34)cc2)CC1` [Example 4-1, 4-[4-(3-Carboxymethyl-7-fluoro-naphthalene-1-carbonyl)-benzenesulfonyl]-piperazine-1-carboxylic acid ethyl ester] displayed an IC50 of 8.3 nM.

`CC(C)(C)OC(=O)N1CCN(S(=O)(=O)c2ccc(C(=O)c3cc(CC(=O)O)cc4ccc(F)cc34)cc2)CC1` [Example 4-2] registered an IC50 of 26.7 nM. Against the preceding compound, the IC50 is about 3.2-fold higher.

Take `Cc1c(CC(=O)O)cc2ccc(F)cc2c1C(=O)c1ccc(S(C)(=O)=O)cc1` [Example 6-1, [6-fluoro-4-(4-methanesulfonyl-benzoyl)-3-methyl-naphthalen-2-yl]-acetic acid]: the IC50 was determined as 2.1 nM.

With `Cc1c(CC(=O)O)cc2ccc(Cl)cc2c1C(=O)c1ccc(S(C)(=O)=O)cc1` [Example 6-2, [6-Chloro-4-(4-methanesulfonyl-benzoyl)-3-methyl-naphthalen-2-yl]-acetic acid], the IC50 was found to be 3.7 nM.

Compound `CCS(=O)(=O)c1ccc(C(=O)c2c(C)c(CC(=O)O)cc3ccc(F)cc23)cc1` [Example 6-3, [4-(4-Ethanesulfonyl-benzoyl)-6-fluoro-3-methyl-naphthalen-2-yl]-acetic acid] came in with an IC50 of 2.4 nM.

For `Cc1ccc2cc(CC(=O)O)cc(Cc3ccc(S(C)(=O)=O)cc3)c2c1` [Example 8-1, [4-(4-Methanesulfonyl-benzyl)-6-methyl-naphthalen-2-yl]-acetic acid], the IC50 amounted to 87.8 nM. This IC50 is about 37-fold higher than that of the compound before.

Take `CS(=O)(=O)c1ccc(Cc2cc(CC(=O)O)cc3ccc(C(F)(F)F)cc23)cc1` [Example 8-2, [4-(4-Methanesulfonyl-benzyl)-6-trifluoromethyl-naphthalen-2-yl]-acetic acid]: the IC50 worked out at 15.3 nM.

The compound `CS(=O)(=O)c1ccc(Cc2cc(CC(=O)O)cc3ccc(F)cc23)cc1` [Example 8-4, [6-Fluoro-4-(4-methanesulfonyl-benzyl)-naphthalen-2-yl]-acetic acid] showed an IC50 of 6.1 nM.

On to `Cc1cc(S(C)(=O)=O)ccc1Cc1cc(CC(=O)O)cc2ccc(F)cc12` [Example 8-5, [6-Fluoro-4-(4-methanesulfonyl-2-methyl-benzyl)-naphthalen-2-yl]-acetic acid], for which the IC50 is 5.3 nM.

For `CS(=O)(=O)c1ccc(Cc2cc(CC(=O)O)cc3ccc(F)cc23)cc1C(F)(F)F` [Example 8-6, [6-Fluoro-4-(4-methanesulfonyl-3-trifluoromethyl-benzyl)-naphthalen-2-yl]-acetic acid], the IC50 amounted to 5.4 nM.

In turn, `CCS(=O)(=O)c1ccc(Cc2cc(CC(=O)O)cc3ccc(F)cc23)c(C)c1` [Example 8-7, [4-(4-Ethanesulfonyl-2-methyl-benzyl)-6-fluoro-naphthalen-2-yl]-acetic acid] showed an IC50 of 5.4 nM.

As for `CN(C)S(=O)(=O)c1ccc(Cc2cc(CC(=O)O)cc3ccc(F)cc23)cc1` [Example 8-8, [4-(4-Dimethylsulfamoyl-benzyl)-6-fluoro-naphthalen-2-yl]-acetic acid], the IC50 stood at 6 nM.

Take `CCS(=O)(=O)c1ccc(Cc2cc(CC(=O)O)cc3ccc(F)cc23)cc1` [Example 8-9, [4-(4-Ethanesulfonyl-benzyl)-6-fluoro-naphthalen-2-yl]-acetic acid]: the half-inhibitory concentration (IC50) is 4.3 nM.

`CNS(=O)(=O)c1ccc(Cc2cc(CC(=O)O)cc3ccc(F)cc23)cc1` [Example 9-1, [6-Fluoro-4-(4-methylsulfamoyl-benzyl)-naphthalen-2-yl]-acetic acid] gave an IC50 of 3.2 nM.

Regarding `Cc1c(CC(=O)O)cc2ccc(F)cc2c1Cc1ccc(S(C)(=O)=O)cc1` [Example 10-1, [6-Fluoro-4-(4-methanesulfonyl-benzyl)-3-methyl-naphthalen-2-yl]-acetic acid], the IC50 stood at 3.9 nM.

For the compound `Cc1c(CC(=O)O)cc2ccc(F)cc2c1Cc1cccc(S(C)(=O)=O)c1` [Example 10-2, [6-Fluoro-4-(3-methanesulfonyl-benzyl)-3-methyl-naphthalen-2-yl]-acetic acid], the IC50 was 54 nM.

Compound `Cc1c(CC(=O)O)cc2ccc(F)cc2c1Cc1ccc(S(=O)(=O)c2ccccc2)cc1` [Example 10-3, [4-(4-Benzenesulfonyl-benzyl)-6-fluoro-3-methyl-naphthalen-2-yl]-acetic acid] had an IC50 of 3.2 nM. This IC50 is about 17-fold lower than that of the compound before.

The compound `Cc1c(CC(=O)O)cc2ccc(F)cc2c1Cc1ccc(Br)cc1` [Example 10-4, [4-(4-Bromo-benzyl)-6-fluoro-3-methyl-naphthalen-2-yl]-acetic acid] displayed an IC50 of 24 nM.

As for `Cc1c(CC(=O)O)cc2ccc(F)cc2c1Cc1ccc(C#N)cc1` [Example 10-5, [4-(4-Cyano-benzyl)-6-fluoro-3-methyl-naphthalen-2-yl]-acetic acid], the IC50 was 12.4 nM.

With `Cc1c(CC(=O)O)cc2ccc(F)cc2c1Cc1ccc(-n2cccn2)cc1` [Example 10-6, [6-Fluoro-3-methyl-4-(4-pyrazol-1-yl-benzyl)-naphthalen-2-yl]-acetic acid], the IC50 was 26.7 nM. Against the preceding compound, the IC50 is about 2.2-fold higher.

The compound `Cc1c(CC(=O)O)cc2ccc(F)cc2c1Cc1cccc(-c2nnnn2C)c1` [Example 10-7, (6-Fluoro-3-methyl-4-[3-(1-methyl-1H-tetrazol-5-yl)-benzyl]-naphthalen-2-yl]-acetic acid] displayed an IC50 of 6.7 nM.

For the compound `Cc1c(CC(=O)O)cc2ccc(F)cc2c1Cc1ccc(OCc2ccccc2)cc1` [Example 10-8, [4-(4-Benzyloxy-benzyl)-6-fluoro-3-methyl-naphthalen-2-yl]-acetic acid], the IC50 worked out at 5 nM.

`Cc1c(CC(=O)O)cc2ccc(F)cc2c1Cc1cccc(C#N)c1` [Example 10-9, [4-(3-Cyano-benzyl)-6-fluoro-3-methyl-naphthalen-2-yl]-acetic acid] yielded an IC50 of 59.9 nM.

In turn, `Cc1c(CC(=O)O)cc2ccc(F)cc2c1Cc1ccc(-c2nnnn2C)cc1` [Example 10-10, {6-Fluoro-3-methyl-4-[4-(1-methyl-1H-tetrazol-5-yl)-benzyl]-naphthalen-2-yl}-acetic acid] came in with an IC50 of 32.5 nM. Compared with the last compound, the IC50 is about 1.8-fold lower.

In the case of `Cc1c(CC(=O)O)cc2ccc(F)cc2c1Cc1ccc(SCc2ccccc2)cc1` [Example 10-11, [4-(4-Benzylsulfanyl-benzyl)-6-fluoro-3-methyl-naphthalen-2-yl]-acetic acid], the IC50 was found to be 3.5 nM.

With `Cc1c(CC(=O)O)cc2ccc(Cl)cc2c1Cc1ccc(S(C)(=O)=O)cc1` [Example 10-12, [6-Chloro-4-(4-methanesulfonyl-benzyl)-3-methyl-naphthalen-2-yl]-acetic acid], the IC50 came out at 10 nM.

Turning to `Cc1c(CC(=O)O)cc2ccc(F)cc2c1Cc1cccc(S(=O)(=O)C(F)(F)F)c1` [Example 11-2, [6-Fluoro-3-methyl-4-(3-trifluoromethanesulfonyl-benzyl)-naphthalen-2-yl]-acetic acid], the IC50 is 68 nM.

On to `Cc1c(CC(=O)O)cc2ccc(F)cc2c1Cc1ccc(S(=O)(=O)Cc2ccccc2)cc1` [Example 11-3, [6-Fluoro-3-methyl-4-(4-phenylmethanesulfonyl-benzyl)-naphthalen-2-yl]-acetic acid], for which the concentration for half-maximal inhibition (IC50) amounted to 2.7 nM.

For the compound `Cc1c(CC(=O)O)cc2ccc(F)cc2c1Cc1ccc(-c2ccc(S(C)(=O)=O)cc2)cc1` [Example 12-1, [6-Fluoro-4-(4′-methanesulfonyl-biphenyl-4-ylmethyl)-3-methyl-naphthalen-2-yl]-acetic acid], the IC50 is 5.6 nM.
